Consider 61 molecules from ChEMBL document CHEMBL4813957, “Antitubercular properties of thiazolidin-4-ones - A review” (Eur J Med Chem, 2021).

≈ marks a conversion by molar mass, not a printed value.

In one test the test system is Mycobacterium tuberculosis. Briefly: Antimycobacterial activity against Mycobacterium tuberculosis H37Rv by microplate alamar blue assay. It is filed as functional.
Details: not given
`O=C1/C(=C/c2ccccc2)SC(=S)N1Cc1nc2ccccc2[nH]1` yielded an MIC of 6.25 µg/mL (≈ 17.8 µM).

`O=C1CSC(c2ccc3c(c2)OCO3)N1c1nc(N2CCOCC2)n[nH]1` (centres undefined): the MIC was not above 1 µg/mL.

For the molecule `Cc1ccc(/C=C2\SC(=S)N(Cc3nc4ccccc4[nH]3)C2=O)cc1`, 6.25 µg/mL (≈ 17.1 µM) was the least that counted as inhibitory (MIC).

In turn, `Cc1ccc(C2SC(C)C(=O)N2c2nc(N3CCN(C)CC3)n[nH]2)cc1` (centres undefined) came in with a minimum inhibitory concentration (MIC) not above 1 µg/mL.

Molecule `COc1ccc2oc(=O)cc(C3SCC(=O)N3c3ccc(Cl)cc3)c2c1` (centres undefined) returned an MIC of 25 µg/mL (≈ 64.5 µM).

Molecule `CN1CCN(c2n[nH]c(N3C(=O)CSC3c3ccc4c(c3)OCO4)n2)CC1` (centres undefined) came in with an MIC not above 1 µg/mL.

The molecule `O=C1N/C(=N\c2ccc(S(=O)(=O)Nc3cc(Cl)c(Cl)cc3Cl)cc2)S/C1=C\c1ccc(O)cc1` gave an MIC of 3.12 µg/mL (≈ 5.62 µM).

Consider `COc1ccc(N2C(=O)CSC2c2cc(=O)oc3ccc(C)cc23)cc1` (centres undefined), for which the minimal inhibitory concentration (MIC) is 25 µg/mL (≈ 68 µM).

In turn, `O=C1/C(=C/c2ccc(F)cc2)SC(=S)N1Cc1nc2ccccc2[nH]1` gave a minimal inhibitory concentration (MIC) of 6.25 µg/mL (≈ 16.9 µM).

The molecule `O=C1/C(=C/c2ccc(O)cc2)SC(=S)N1Cc1nc2ccccc2[nH]1` yielded a minimal inhibitory concentration (MIC) of 6.25 µg/mL (≈ 17 µM).

As for `O=C(O)c1ccc(N2C(=O)CSC2c2ccc(F)cc2)cc1O` (centres undefined), 6.25 µg/mL (≈ 18.7 µM) was the least that counted as inhibitory (MIC).

Turning to `Cc1ccc2oc(=O)cc(C3SCC(=O)N3c3ccccc3)c2c1` (centres undefined), it took 25 µg/mL (≈ 74.1 µM) to inhibit growth (MIC).

With `CN[C@@H]1[C@H](O[C@H]2[C@H](O[C@H]3[C@H](O)[C@@H](O)[C@H](N=C(N)N)[C@@H](O)[C@@H]3N=C(N)N)O[C@@H](C)[C@]2(O)C=O)O[C@@H](CO)[C@H](O)[C@H]1O` [STREPTOMYCIN], the lowest concentration to inhibit growth (MIC) was 6.25 µg/mL (≈ 10.7 µM).

A further test deals with Mycobacterium tuberculosis. Briefly: Antimycobacterial activity against Mycobacterium tuberculosis H37Rv by Lowenstein-Jensen method relative to control. It is filed as functional.
Details: not given
As to `O=C(NCCCNc1ncc([N+](=O)[O-])s1)N1C(=O)/C(=C/c2ccccc2)SC1c1ccccc1` (centres undefined), the MIC came to 12.5 µg/mL (≈ 25.2 µM).

Molecule `O=C(NCCCNc1ncc([N+](=O)[O-])s1)N1C(=O)/C(=C/c2cccc(Cl)c2)SC1c1cccc(Cl)c1` (centres undefined) returned a minimal inhibitory concentration (MIC) of 2.75 µg/mL (≈ 4.87 µM).

Regarding `O=C(NCCCNc1ncc([N+](=O)[O-])s1)N1C(=O)/C(=C/c2cccc([N+](=O)[O-])c2)SC1c1cccc([N+](=O)[O-])c1` (centres undefined), inhibition of growth (MIC) required 2.5 µg/mL (≈ 4.27 µM).

Consider `O=C(NCCCNc1ncc([N+](=O)[O-])s1)N1C(=O)/C(=C/c2ccccc2Cl)SC1c1ccccc1Cl` (centres undefined), for which the MIC stood at 2.5 µg/mL (≈ 4.43 µM).

`O=C(NCCCNc1ncc([N+](=O)[O-])s1)N1C(=O)/C(=C/c2ccc(Br)cc2)SC1c1ccc(Br)cc1` (centres undefined) returned an MIC of 2.75 µg/mL (≈ 4.21 µM).

`O=C(NCCCNc1ncc([N+](=O)[O-])s1)N1C(=O)/C(=C/c2ccccc2Br)SC1c1ccccc1Br` (centres undefined) displayed an MIC of 6.25 µg/mL (≈ 9.57 µM).

`O=C(NCCCNc1ncc([N+](=O)[O-])s1)N1C(=O)/C(=C/c2ccc(Cl)cc2)SC1c1ccc(Cl)cc1` (centres undefined): the lowest concentration to inhibit growth (MIC) was 2.5 µg/mL (≈ 4.43 µM).

On to `O=C(NCCCNc1ncc([N+](=O)[O-])s1)N1C(=O)/C(=C/c2cccc(Br)c2)SC1c1cccc(Br)c1` (centres undefined), for which inhibition of growth (MIC) required 2.75 µg/mL (≈ 4.21 µM).

For `O=C(NCCCNc1ncc([N+](=O)[O-])s1)N1C(=O)/C(=C/c2ccc([N+](=O)[O-])cc2)SC1c1ccc([N+](=O)[O-])cc1` (centres undefined), the minimum inhibitory concentration (MIC) is 2.5 µg/mL (≈ 4.27 µM).

In another test the test system is Mycobacterium tuberculosis. Briefly: Antimycobacterial activity against Mycobacterium tuberculosis H37Rv incubated for 5 days by microplate alamar blue assay. The conditions noted are these: 120 h, time 5 day. It is filed as functional.
As for `O=C1NC(=S)S/C1=C\c1cccc([N+](=O)[O-])c1`, the MIC came out at 0.05 µg/mL.

Take `COc1ccc(/C=C2\SC(=S)NC2=O)cc1`: the MIC is 0.1 µg/mL.

For `O=C1CSC(c2c(-c3ccccc3)[nH]c3ccccc23)N1c1nc(-c2ccccc2)cs1` (centres undefined), it took 50 µg/mL to inhibit growth (MIC).

`O=C1NC(=S)S/C1=C\c1ccc[nH]1`: the MIC turned out to be 0.2 µg/mL.

Take `O=C1CSC(c2c(-c3ccccc3)[nH]c3ccccc23)N1c1nc(-c2ccc(Cl)cc2)cs1` (centres undefined): the MIC amounted to 50 µg/mL.

With `Nc1ccc([N+](=O)[O-])cc1N1C(=O)/C(=C/c2ccccc2)SC1=S`, the lowest concentration to inhibit growth (MIC) was 12.5 µg/mL.

Molecule `COc1ccc(/C=C2\SC(=S)N(c3ccc(N)cc3)C2=O)cc1` registered an MIC of 12.5 µg/mL.

`O=C(NN1C(=O)CSC1c1c(-c2ccccc2)[nH]c2ccccc12)c1[nH]c2ccc(Cl)cc2c1-c1ccccc1` (centres undefined) registered a minimum inhibitory concentration (MIC) of 12.5 µg/mL.

With `Cc1ccc(NN2C(=O)CSC2c2ccc(-n3ccnc3)cc2)cc1` (centres undefined), the minimum inhibitory concentration (MIC) was found to be 14.3 µM.

Take `CN(C)c1ccc(/C=C2\SC(=S)N(c3ccc(C=O)cc3)C2=O)cc1`: the MIC worked out at 12.5 µg/mL.

Molecule `COc1ccc(/C=C2\SC(=S)N(c3cc([N+](=O)[O-])ccc3N)C2=O)cc1` displayed a minimum inhibitory concentration (MIC) of 12.5 µg/mL.

In turn, `O=C1CSC(c2ccc(-n3cncn3)cc2)N1Nc1ccccc1` (centres undefined) came in with an MIC of 14.3 µM.

Take `O=C1CSC(c2ccc(-n3ccnc3)cc2)N1Nc1ccccc1` (centres undefined): inhibition of growth (MIC) required 14.3 µM.

In the case of `NC(=O)c1cnccn1` [PYRAZINAMIDE], the minimal inhibitory concentration (MIC) worked out at 3.12 µg/mL.

As to `CN[C@@H]1[C@H](O[C@H]2[C@H](O[C@H]3[C@H](O)[C@@H](O)[C@H](N=C(N)N)[C@@H](O)[C@@H]3N=C(N)N)O[C@@H](C)[C@]2(O)C=O)O[C@@H](CO)[C@H](O)[C@H]1O` [STREPTOMYCIN], 6.25 µg/mL was the least that counted as inhibitory (MIC).

A further test has as its system Mycobacterium tuberculosis. Briefly: Antimycobacterial activity against Mycobacterium tuberculosis H37Rv ATCC […] by microplate alamar blue assay. The conditions noted are these: 168 h, time 7 day. It is filed as functional.
`O=C1CSC(c2ccccc2)N1C1=NN2C(=CSC2c2ccccc2)S1` (centres undefined): the MIC worked out at 6.25 µg/mL (≈ 15.7 µM).

Turning to `CN(C)c1ccc(C2SC=C3SC(N4C(=O)CSC4c4ccccc4)=NN32)cc1` (centres undefined), the MIC turned out to be 6.25 µg/mL (≈ 14.2 µM).

`Cc1ccc(C2SC=C3SC(N4C(=O)CSC4c4ccc(C)cc4)=NN32)cc1` (centres undefined) returned an MIC of 1.6 µg/mL (≈ 3.76 µM).

`COc1ccc(C2SCC(=O)N2C2=NN3C(=CSC3c3ccc(N(C)C)cc3)S2)cc1` (centres undefined) registered an MIC of 3.12 µg/mL (≈ 6.63 µM).

As for `COc1ccccc1C1SCC(=O)N1C1=NN2C(=CSC2c2ccc(N(C)C)cc2)S1` (centres undefined), the lowest concentration to inhibit growth (MIC) was 3.12 µg/mL (≈ 6.63 µM).

`Cc1ccc(C2SC=C3SC(N4C(=O)CSC4c4ccccc4C)=NN32)cc1` (centres undefined): it took 3.12 µg/mL (≈ 7.33 µM) to inhibit growth (MIC).

`O=C1CSC(c2ccc(O)cc2)N1C1=NN2C(=CSC2c2ccc(O)cc2)S1` (centres undefined) gave an MIC of 1.6 µg/mL (≈ 3.72 µM).

As for `Cc1ccc(C2SC=C3SC(N4C(=O)CSC4c4ccccc4)=NN32)cc1` (centres undefined), the MIC turned out to be 625 µg/mL (≈ 1520 µM).

In turn, `O=C1CSC(c2ccccc2)N1C1=NN2C(=CSC2c2ccc(O)cc2)S1` (centres undefined) came in with an MIC of 6.25 µg/mL (≈ 15.1 µM).

Turning to `O=C1CSC(c2ccccc2Cl)N1C1=NN2C(=CSC2c2ccccc2)S1` (centres undefined), 3.12 µg/mL (≈ 7.22 µM) was the least that counted as inhibitory (MIC).

Molecule `O=C1CSC(c2ccc(Cl)cc2)N1C1=NN2C(=CSC2c2ccccc2)S1` (centres undefined) displayed an MIC of 3.12 µg/mL (≈ 7.22 µM).

As for `O=C1CSC(c2ccccc2O)N1C1=NN2C(=CSC2c2ccc(O)cc2)S1` (centres undefined), the MIC was 3.12 µg/mL (≈ 7.26 µM).

Regarding `NC(=O)c1cnccn1` [PYRAZINAMIDE], 3.12 µg/mL (≈ 25.3 µM) was the least that counted as inhibitory (MIC).

With `CN[C@@H]1[C@H](O[C@H]2[C@H](O[C@H]3[C@H](O)[C@@H](O)[C@H](N=C(N)N)[C@@H](O)[C@@H]3N=C(N)N)O[C@@H](C)[C@]2(O)C=O)O[C@@H](CO)[C@H](O)[C@H]1O` [STREPTOMYCIN], the minimum inhibitory concentration (MIC) was found to be 6.25 µg/mL (≈ 10.7 µM).

The test system of another test is Mycobacterium tuberculosis. Briefly: Antimycobacterial activity against Mycobacterium tuberculosis H37Rv ATCC27294 measured after 28 days by two-fold serial dilution method. It is filed as functional. The conditions noted are these: H37Rv ATCC 27294, 672 h, time 28 day.
`N=C1S/C(=C\c2cc([N+](=O)[O-])co2)C(=O)N1c1cccc(C(F)(F)F)c1`: the minimal inhibitory concentration (MIC) came to 4.07 µM (≈ 1.56 µg/mL).

On to `N=C1S/C(=C\c2ccc(OCc3ccccc3)cc2)C(=O)N1c1cccc(C(F)(F)F)c1`, for which the MIC came to 6.88 µM (≈ 3.13 µg/mL).

For the molecule `COc1cc(/C=C2\SC(=N)N(c3cccc(C(F)(F)F)c3)C2=O)cc(OC)c1OC`, the minimal inhibitory concentration (MIC) came to 7.11 µM (≈ 3.12 µg/mL).

For `COc1ccc(/C=C2\SC(=N)N(c3cccc(C(F)(F)F)c3)C2=O)cc1`, the MIC is 4.12 µM (≈ 1.56 µg/mL).

Regarding `COc1ccc(/C=C2\SC(=N)N(c3ncc([N+](=O)[O-])s3)C2=O)cc1`, the MIC was found to be 3.78 µM (≈ 1.37 µg/mL).

On to `N=C1S/C(=C\c2ccccc2F)C(=O)N1c1cccc(C(F)(F)F)c1`, for which the lowest concentration to inhibit growth (MIC) was 4.25 µM (≈ 1.56 µg/mL).

For the molecule `CC[C@@H](CO)NCCN[C@@H](CC)CO` [ETHAMBUTOL], the MIC is 7.64 µM (≈ 1.56 µg/mL).

The test system of a further test is Mycobacterium tuberculosis. Briefly: Antimycobacterial activity against Mycobacterium tuberculosis H37Ra ATCC 25177 incubated for 7 days by microplate alamar blue assay. It is filed as functional. The conditions noted are these: H37Ra ATCC 25177, 168 h, time 7 day.
`COc1cc(/C=N/NC(=S)Nc2ccc(Cl)cc2)ccc1OC(=O)CC1SC(=O)NC1=O` (centres undefined) displayed an MIC of 2 µg/mL (≈ 4.06 µM).

Consider `O=C(CC1SC(=O)NC1=O)Oc1ccc(/C=N/NC(=S)Nc2ccc(Cl)cc2)cc1` (centres undefined), for which the lowest concentration to inhibit growth (MIC) was 2 µg/mL (≈ 4.32 µM).

Turning to `COc1cc(/C=N/NC(=S)Nc2ccccc2)ccc1OC(=O)/C=C1\SC(=O)NC1=O`, inhibition of growth (MIC) required 2 µg/mL (≈ 4.38 µM).

`COc1cc(/C=N/NC(=S)Nc2ccccc2)ccc1OC(=O)CC1SC(=O)NC1=O` (centres undefined) showed an MIC of 2 µg/mL (≈ 4.36 µM).

On to `COc1cc(/C=N/NC(=S)Nc2cccc(Cl)c2)ccc1OC(=O)/C=C1\SC(=O)NC1=O`, for which the MIC was 2 µg/mL (≈ 4.07 µM).

For `COc1cc(/C=N/NC(=S)Nc2cccc(Cl)c2)ccc1OC(=O)CC1SC(=O)NC1=O` (centres undefined), the MIC was determined as 2 µg/mL (≈ 4.06 µM).
